Columns and labels:
ECL P99 [1] = assay: MIC, broth microdilution (CLSI), substance alone or ATB combined with compound at 4 or 8 μg/mL; assay type: cell-based, E. cloacae; conditions: Enterobacter cloacae; substance alone; ECL P99; read-out: MIC
Procedure, shortened: (§1)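 CLSI M7-A7 broth microdilution. ca-MHB, 5·10^5 CFU/mL log-phase cells, 16-20 h, 35° C, ambient air. Fosfomycin wells + 25 μg/ml glucose-6-phosphate. Visual MIC read.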

ECL P99 [2] = assay: Fractional Inhibitory Concentration Index, checkerboard assay; assay type: cell-based, E. cloacae
Method: (§2) Method 2: Determination of the Fractional Inhibitory Concentration Index
(§3) Serial 2-fold dilutions of each antibiotic tested were prepared in ca-MHB and mixed in each well of a 96-well microtiter plate so that each row (and column) contained a fixed amount of one agent and increasing amounts of the second agent. The range of drug concentrations used in the checkerboard analysis was such that the dilution range encompassed the MIC for each drug used in the analysis. Broth microdilution plates were inoculated with each strain (Table 3) to yield 5.10^5 CFU/mL in a 100 μL final volume and incubated for 18 h at 35° C. in ambient air. Assays including Fosfomycin were supplemented with 25 μg/ml of Glucose-6-phosphate. MICs were determined after overnight incubation, and the fractional inhibitory concentration (FIC) index was calculated for each well. The FIC index (FICI) was calculated for each combination according to the equation FICI=FICa+FICb=(MIC of drug A in combination/MIC of drug A alone)+(MIC of drug B in combination/MIC of drug B alone). The FICI was interpreted as follows: synergy, FICI […]; indifference, 0.5<FIC<4; and antagonism, FICI>4. The checkerboard assays were performed in duplicate.

PAE UFR48 [3] = assay: as above; assay type: cell-based, P. aeruginosa
Method: as §2, §3

PAE UFR90 [4] = assay: as above; assay type: cell-based, P. aeruginosa
Method: as §2, §3

SPN 49619 = assay: MIC, broth microdilution (CLSI), substance alone or ATB combined with compound at 4 or 8 μg/mL; assay type: cell-based, S. pneumoniae; conditions: SPN 49619; for MIC ATB combined with compound: compound @8 μg/ml
Procedure, shortened: as §1

SAU 29213 = assay: as above; assay type: cell-based, S. aureus; conditions: for MIC ATB combined with compound: compound @8 μg/ml, SAU 29213
Procedure, shortened: as §1

KPN UFR68 = assay: Fractional Inhibitory Concentration Index, checkerboard assay; assay type: cell-based, K. pneumoniae
Method: as §2, §3

KPN UFR42 = assay: MIC, broth microdilution (CLSI), substance alone or ATB combined with compound at 4 or 8 μg/mL; assay type: cell-based, K. pneumoniae; conditions: Klebsiella pneumoniae; substance alone; KPN UFR42; read-out: MIC
Method: (§4) Compounds of the present invention were assessed against genotyped bacterial strains alone or in combination with an antibacterial. In the assays, MICs of said compounds or combination of antibiotics with fixed concentrations of said compounds (4 or 8 μg/mL) were determined by the broth microdilution method according to the Clinical Laboratory Standards Institute (CLSI-M7-A7). Briefly, compounds alone according to the invention were prepared in DMSO and spotted (2 μL each) on sterile polystyrene plates (Corning, 3788). Combinations of compounds and antibiotics dilutions were prepared in DMSO and spotted (1 μL each) on sterile polystyrene plates (Corning, 3788). Log phase bacterial suspensions were adjusted to a final density of 5·10^5 CFU/mL in cation-adjusted Mueller-Hinton broth (ca-MHB; Becton-Dickinson and Company) and added to each well (98 μL). Assays including Fosfomycin were supplemented with 25 μg/ml of Glucose-6-phosphate. Microplates were incubated for 16-20 h at 35° C. in ambient air. The MIC of the compounds was defined as the lowest concentration of said compounds that prevented bacterial growth as read by visual inspection. The MIC of ATB at each compound concentration was defined as the lowest concentration of ATB that prevented bacterial growth as read by visual inspection.

KPN BAA-1898 = assay: as above; assay type: cell-based, K. pneumoniae; conditions: Klebsiella pneumoniae, BAA1898; substance alone; KPN BAA-1898; read-out: MIC
Method: as §4

ECO 190317 [5] = assay: Fractional Inhibitory Concentration Index, checkerboard assay; assay type: cell-based, E. coli
Method: as §2, §3

PAE UFR48 [6] = assay: MIC, broth microdilution (CLSI), substance alone or ATB combined with compound at 4 or 8 μg/mL; assay type: cell-based, P. aeruginosa; conditions: PAE UFR48; for MIC ATB combined with compound: compound @8 μg/ml
Procedure, shortened: as §1

PAE UFR90 [7] = assay: as above; assay type: cell-based, P. aeruginosa; conditions: PAE UFR90; for MIC ATB combined with compound: compound @8 μg/ml
Procedure, shortened: as §1

PAE 105250 = assay: as above; assay type: cell-based, P. aeruginosa; conditions: PAE 105250; for MIC ATB combined with compound: compound @8 μg/ml
Procedure, shortened: as §1

ECO 190317 [8] = assay: as above; assay type: cell-based, E. coli; conditions: Escherichia coli; substance alone; ECO 190317; read-out: MIC
Procedure, shortened: as §1

ECO UFR39 = assay: as above; assay type: cell-based, E. coli; conditions: Escherichia coli; substance alone; ECO UFR39; read-out: MIC
Procedure, shortened: as §1

[9] = Pseudomonas aeruginosa, substance alone, read-out: MIC

## NCCn1c2c(sc1=O)C1CN(C2)C(=O)N1OS(=O)(=O)[O-].[Na+] (stereo not drawn) [Example 3, sodium and 2,2,2-trifluoroacetate [5-(2-azaniumethyl)-4,9-dioxo-3-thia-5,8,10-triaza-tricyclo[6.2.1.0^2,6]undec-2(6)-en-10-yl] sulfate]
ECL P99 [1]
  MIC: 0.5 µg/mL
ECL P99 [2]; compound +ATM
  FIC index min: 0.28
ECL P99 [2]; compound +FEP
  FIC index min: 0.31
ECL P99 [2]; compound +FOS
  FIC index min: ≤0.13
ECL P99 [2]; compound +MEM
  FIC index min: 0.54
ECL P99 [2]; compound +PIP
  FIC index min: 0.13
PAE UFR48 [3]; compound +ATM
  FIC index min: 0.13
PAE UFR48 [3]; compound +FEP
  FIC index min: 0.50
PAE UFR48 [3]; compound +FOS
  FIC index min: 0.34
PAE UFR48 [3]; compound +MEM
  FIC index min: 0.75
PAE UFR48 [3]; compound +PIP
  FIC index min: 0.31
PAE UFR90 [4]; compound +ATM
  FIC index min: 0.75
PAE UFR90 [4]; compound +FEP
  FIC index min: 0.32
PAE UFR90 [4]; compound +FOS
  FIC index min: 0.88
PAE UFR90 [4]; compound +MEM
  FIC index min: 0.75
PAE UFR90 [4]; compound +PIP
  FIC index min: 0.63
SPN 49619; ATB ATM
  MIC ATB combined with compound: <0.031 µg/mL
SPN 49619; ATB FEP
  MIC ATB combined with compound: <0.031 µg/mL
SPN 49619; ATB FOS
  MIC ATB combined with compound: <=0.125 μg/mL
SPN 49619; ATB MEM
  MIC ATB combined with compound: <0.031 µg/mL
SPN 49619; ATB PIP
  MIC ATB combined with compound: <0.031 µg/mL
SPN 49619; Streptococcus pneumoniae, substance alone, read-out: MIC
  MIC: 1 µg/mL
SAU 29213; ATB ATM
  MIC ATB combined with compound: >32 µg/mL
SAU 29213; ATB FEP
  MIC ATB combined with compound: 1 µg/mL
SAU 29213; ATB FOS
  MIC ATB combined with compound: <=0.125 μg/mL
SAU 29213; ATB MEM
  MIC ATB combined with compound: 0.063 µg/mL
SAU 29213; ATB PIP
  MIC ATB combined with compound: 0.5 µg/mL
SAU 29213; Staphylococcus aureus, substance alone, SAU 29213 (MSSA 29213), read-out: MIC
  MIC: 32 µg/mL
KPN UFR68; compound +ATM
  FIC index min: 0.049
KPN UFR68; compound +FEP
  FIC index min: 0.021
KPN UFR68; compound +FOS
  FIC index min: 0.080
KPN UFR68; compound +MEM
  FIC index min: 0.16
KPN UFR68; compound +PIP
  FIC index min: 0.10
KPN UFR42
  MIC: 16 µg/mL
KPN BAA-1898
  MIC: 16 µg/mL
ECO 190317 [5]; compound +ATM
  FIC index min: 0.27
ECO 190317 [5]; compound +FEP
  FIC index min: 0.19
ECO 190317 [5]; compound +FOS
  FIC index min: 0.66
ECO 190317 [5]; compound +MEM
  FIC index min: 0.56
ECO 190317 [5]; compound +PIP
  FIC index min: ≤0.5
PAE UFR48 [6]; ATB ATM
  MIC ATB combined with compound: 2 µg/mL
PAE UFR48 [6]; ATB FEP
  MIC ATB combined with compound: <0.031 µg/mL
PAE UFR48 [6]; ATB FOS
  MIC ATB combined with compound: 2 µg/mL
PAE UFR48 [6]; ATB MEM
  MIC ATB combined with compound: <=0.031 μg/mL
PAE UFR48 [6]; ATB PIP
  MIC ATB combined with compound: <0.031 µg/mL
PAE UFR48 [6]; [9]
  MIC: 8 µg/mL
PAE UFR90 [7]; ATB ATM
  MIC ATB combined with compound: <0.031 µg/mL
PAE UFR90 [7]; ATB FEP
  MIC ATB combined with compound: <0.031 µg/mL
PAE UFR90 [7]; ATB FOS
  MIC ATB combined with compound: <0.125 µg/mL
PAE UFR90 [7]; ATB MEM
  MIC ATB combined with compound: <0.031 µg/mL
PAE UFR90 [7]; ATB PIP
  MIC ATB combined with compound: <0.031 µg/mL
PAE UFR90 [7]; [9]
  MIC: 8 µg/mL
PAE 105250; ATB ATM
  MIC ATB combined with compound: <0.031 µg/mL
PAE 105250; ATB FEP
  MIC ATB combined with compound: <0.031 µg/mL
PAE 105250; ATB FOS
  MIC ATB combined with compound: 16 µg/mL
PAE 105250; ATB MEM
  MIC ATB combined with compound: 0.063 µg/mL
PAE 105250; ATB PIP
  MIC ATB combined with compound: 0.063 µg/mL
PAE 105250; [9]
  MIC: 8 µg/mL
ECO 190317 [8]
  MIC: 0.25 µg/mL
ECO UFR39
  MIC: 0.5 µg/mL

— patent US20200024278A1, “COMPOSITION COMPRISING ANTIBIOTIC COMPOUND AND AN HETEROCYCLIC COMPOUND AND THEIR USE IN PREVENTING OR TREATING BACTERIAL INFECTIONS” (MUTABILIS, priority 2016, published 2020)
